Patent US12698473B2, “Cell-containing structure” (Ricoh Company, Ltd., priority 2021, dated 2026)

Tests used:
[1] = system: cultured product composed of cell masses containing hiPSC-Neuron and astrocytes derived from a human fetus; test: Evaluation of electrophysiological neurotoxicity of test compound: firing frequency response on MEA plate; type: cell-based; conditions: spontaneous firing frequency before exposure 200 Hz or more per 16 electrodes; compared with 4 times or more at 4 to <100 Hz; FIG. 10
Protocol: A multi-electrode array (MEA) plate was prepared as a cell-containing container which is a cell-containing structure of the present embodiment.
As a plate used for the MEA plate, CytoView MEA Plate (commercially available from Axion Biosystems) having 6×8 wells (a total of 48 wells) and a micro electrode array on the well bottom was used. […]
In the main test, the action potential of neurons adhered onto a micro electrode 3 arranged on the well bottom as shown in FIG. 1 was measured as an extracellular potential, and the neurotoxicity was evaluated from the change in extracellular potential when the test compound was treated. […]
That is, using maestro Pro (commercially available from Axion Biosystems), for the prepared MEA Cytoview Plate (commercially available from Axion Biosystems), the results of the extracellular potential of the cultured product 2 composed of cell masses containing hiPSC-Neuron and astrocytes derived from a human fetus, which were adhered to the well bottom 1 shown in FIG. 1 and FIG. 2, measured using maestro Pro for 10 minutes are illustrated as a raster plot 6 of FIG. 3 and a graph 7 of the number of detected spikes. […] The spontaneous firing frequency (Hz) can be detected from the number of peaks in the graph […]. […]

[2] = system: cultured product composed of cell masses containing hiPSC-Neuron and astrocytes derived from a human fetus; test: Pharmacological test with anti-epileptic drugs on MEA plate (extracellular potential, raster plot, number of spikes); type: cell-based; conditions: Before vs After drug exposure; FIGS. 6-8
Protocol: From 22 days after cell seeding, once a week, extracellular potential data was acquired for 10 minutes using an extracellular measurement device maestro (Axion Biosystems).
That is, using maestro Pro (commercially available from Axion Biosystems), for the prepared MEA Cytoview Plate (commercially available from Axion Biosystems), the results of the extracellular potential of the cultured product 2 composed of cell masses containing hiPSC-Neuron and astrocytes derived from a human fetus, which were adhered to the well bottom 1 shown in FIG. 1 and FIG. 2, measured using maestro Pro for 10 minutes are illustrated as a raster plot 6 of FIG. 3 and a graph 7 of the number of detected spikes. […] The spontaneous firing frequency (Hz) can be detected from the number of peaks in the graph 7 per hour.
Using the plate produced in Experimental Example 1, a pharmacological test was performed using various drugs. The effect of the drug was confirmed by exposing an anti-epileptic drug having a function of inhibiting nerve firing to a sample. The evaluated drugs were Carbamazepine, Phenytoin, and Zonisamide, and the measurement was performed under the same conditions as the measurement of the extracellular potential data of Experimental Example 1.
A graph of a raster plot that visualizes the firing state and the number of detected. spikes for each drug is shown for Carbamazepine in FIG. 6, Phenytoin in FIG. 7, and Zonisamide in FIG. 8. Before in the drawings indicates before drug exposure, and After indicates after drug exposure. In all of the drugs, it was observed that the spontaneous firing frequency that could be detected from the number of spikes after drug exposure was reduced, and the mode in which that firing activity of the nerve was reduced after drug exposure was confirmed. That is, it was observed that the plate of this example could be used for detection in the pharmacological test using various drugs.

Row | Compound | response rate to the test compound (firing frequency after exposure) [1] | spontaneous firing frequency detected from the number of spikes after drug exposure [2]
1 | Nc1ccncc1 [4-AP] | about half that | 
2 | CC[C@@H]1C(=O)OC[C@@H]1Cc1cncn1C [Pilocarpine] | about half that | 
3 | NC(=O)N1c2ccccc2C=Cc2ccccc21 [Carbamazepine] |  | reduced
4 | NS(=O)(=O)Cc1noc2ccccc12 [Zonisamide] |  | reduced
5 | O=C1NC(=O)C(c2ccccc2)(c2ccccc2)N1 [Phenytoin] |  | reduced
